The source of these data is patent publication US20230348424A1, “HETEROCYCLIC COMPOUNDS AND METHODS OF USE” (Schrödinger, Inc., priority 2022, published 2023).

Assay [1] has as its target SOS1:KRAS (G12C) interaction (Homo sapiens (Human), UniProt Q07889). Kind of assay: SOS1 KRas(G12C) FRET Assay. It is filed as binding. To be noted: 0.5 nM His10-SOS1 (res. 564-1049), 2.5 nM GST-KRAS G12C (res. 1-169), 2 hrs at RT. In short, it runs like this: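 GST-KRAS G12C (res. 1-169) at 2.5 nM and His10-SOS1 (res. 564-1049) at 0.5 nM, final, in PBS with 0.1% BSA, 5 mM MgCl2, 100 mM KF, 5 mM DTT and 0.5% DMSO. After 2 h at RT, FRET read at 665/615 nm and normalized to DMSO and no-SOS1 controls. IC50 by non-linear regression.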

The next assay deals with human SOS1 (Homo sapiens (Human), UniProt Q07889). The assay can be described thus: Surface Plasmon Resonance (SPR) SOS1 Binding Assay. To be noted: biotinylated SOS1 (res. 564-1049), Biacore 8K, 25° C., kinetic or steady state fit, 1:1 binding; read-out: hSOS1 KD. In short, it runs like this:
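Biotinylated Avi-tagged human SOS1 (res. 564-1049) captured on streptavidin chip (~3,000 RU); compounds injected 60 s, dissociation 600 s, at 25° C in Tris pH 8.0 buffer with 5% DMSO. Reference- and blank-subtracted; KD from kinetic or steady-state 1:1 binding fit.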
Background: SPR reads the build-up and loss of mass on a sensor chip optically.

Chain of human SOS1 (Q07889 564-1049): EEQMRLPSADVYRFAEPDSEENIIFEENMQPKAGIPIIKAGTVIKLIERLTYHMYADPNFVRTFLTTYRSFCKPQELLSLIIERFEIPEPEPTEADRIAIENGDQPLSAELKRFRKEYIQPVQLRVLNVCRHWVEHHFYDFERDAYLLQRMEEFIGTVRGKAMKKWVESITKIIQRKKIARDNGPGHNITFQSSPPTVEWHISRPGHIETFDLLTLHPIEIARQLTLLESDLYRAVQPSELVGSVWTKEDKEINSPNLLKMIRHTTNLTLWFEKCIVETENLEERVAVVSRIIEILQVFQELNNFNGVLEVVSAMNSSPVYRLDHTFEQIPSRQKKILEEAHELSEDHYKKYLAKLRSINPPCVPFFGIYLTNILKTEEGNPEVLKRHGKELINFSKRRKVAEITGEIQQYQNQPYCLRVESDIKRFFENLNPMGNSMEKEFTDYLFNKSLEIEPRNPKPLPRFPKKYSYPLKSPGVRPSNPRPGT
Chain of SOS1:KRAS (G12C) interaction (Q07889 564-1049, stated change not applied): as the sequence (Q07889 564-1049) above

A word on the IC50: it is the concentration that inhibits the measured activity by half. What is called Kd is the equilibrium constant for the complex coming apart. In assay [1], `C[C@@H](NC(=O)c1cn(C23CC(C2)C3)c(=O)cc1N[C@H]1C[C@@H](N(C)C)C1)c1cccc(C(F)F)c1F` [Example 133, 1-(bicyclo[1.1.1]pentan-1-yl)-N-((R)-1-(3-(difluoromethyl)-2-fluorophenyl)ethyl)-4-(((1s,3S)-3-(dimethylamino)cyclobuty 1)amino)-6-oxo-1,6-dihydropyridine-3-carboxamide] yielded an IC50 of 23.2 nM. Also, on human SOS1, the Kd is 11 nM.
Turning to `C[C@@H]1[C@@H](n2cc(C(=O)N[C@H](C)c3cccc(C(F)F)c3F)c(N[C@H]3[C@@H]4CN(C)C[C@@H]43)cc2=O)C1(F)F` (single isomer, unassigned) [Example 109], in assay [1], half-maximal inhibition (IC50) required 3.6 nM. In addition, the Kd on human SOS1 is 2 nM.
The corresponding values for `C[C@@H](NC(=O)c1cn(C23CC(C)(C2)C3)c(=O)cc1N[C@H]1[C@@H]2CN(C)C[C@@H]21)c1cccc(C(F)F)c1F` [Example 98, N-((R)-1-(3-(difluoromethyl)-2-fluorophenyl)ethyl)-4-(((1R,5S,6s)-3-methyl-3-azabicyclo[3.1.0]hexan-6-yl)amino)-1-(3-methylbicyclo[1.1.1]pentan-1-yl)-6-oxo-1,6-dihydropyridine-3-carboxamide] are 13.4 nM and 6 nM.
`C[C@@H](NC(=O)c1cn(C2(C(F)F)CC2)c(=O)cc1N[C@@H]1CN2CCC1CC2)c1cccc(C(F)F)c1F` [Example 84, N-((R)-1-(3-(difluoromethyl)-2-fluorophenyl)ethyl)-1-(1-(difluoromethyl)cyclopropyl)-6-oxo-4-(((S)-quinuclidin-3-yl)amino)-1,6-dihydropyridine-3-carboxamide] displayed a 50% inhibitory concentration (IC50) in assay [1] of 10.2 nM. The Kd on human SOS1 was 9 nM.
The corresponding values for `Cc1c([C@@H](C)NC(=O)c2cn(C3CCOCC3)c(=O)cc2N[C@H]2C[C@H](N(C)C)C2)cccc1C(F)(F)F` [Example 7, 4-(((1r,3R)-3-(dimethylamino)cyclobutyl)amino)-N-((R)-1-(2-methyl-3-(trifluoromethyl)phenyl)ethyl)-6-oxo-1-(tetrahydro-2H-pyran-4-yl)-1,6-dihydropyridine-3-carboxamide] are 53.4 nM and 20 nM.
For the compound `C[C@@H](NC(=O)c1cn([C@H]2[C@H](C)C2(F)F)c(=O)cc1N[C@H]1[C@@H]2CN(C)C[C@@H]21)c1cccc(C(F)F)c1F` (single isomer, unassigned) [Example 110], in assay [1], the IC50 is 23.8 nM. At human SOS1, the Kd worked out at 12 nM.
Consider `C[C@@H](NC(=O)c1cn(C2(C(F)F)CC2)c(=O)cc1NC1CCN(C)CC1)c1cccc(C(C)(F)F)c1F` [Example 51, (R)-N-(1-(3-(1,1-difluoroethyl)-2-fluorophenyl)ethyl)-1-(1-(difluoromethyl)cyclopropyl)-4-((1-methylpiperidin-4-yl)amino)-6-oxo-1,6-dihydropyridine-3-carboxamide], for which the midpoint of inhibition in assay [1], the IC50, lay at 18.5 nM. In addition, at human SOS1, the Kd was found to be 8 nM.
On to `C[C@@H](NC(=O)c1cn([C@@]2(C)CCOC2)c(=O)cc1N[C@H]1[C@@H]2CN(C)C[C@@H]21)c1cccc(C(F)F)c1F` (single isomer, unassigned) [Example 151], for which the IC50 in assay [1] came out at 47.3 nM. Further, on human SOS1, the Kd turned out to be 12 nM.
The corresponding values for `C[C@@H](NC(=O)c1cn([C@H]2CC23CC3)c(=O)cc1N[C@H]1[C@@H]2CN(C)C[C@@H]21)c1cccc(C(F)F)c1F` (single isomer, unassigned) [Example 115] are 14.1 nM and 6 nM.
Compound `C[C@@H](NC(=O)c1cn([C@H]2CCOC[C@@H]2F)c(=O)cc1N[C@H]1[C@@H]2CN(C)C[C@@H]21)c1cccc(C(F)F)c1F` [Example 129, N-((R)-1-(3-(difluoromethyl)-2-fluorophenyl)ethyl)-1-((3R,4S)-3-fluorotetrahydro-2H-pyran-4-yl)-4-(((1R,5S,6s)-3-methyl-3-azabicyclo[3.1.0]hexan-6-yl)amino)-6-oxo-1,6-dihydropyridine-3-carboxamide] gave an IC50 in assay [1] of 25 nM. Also, the Kd at human SOS1 is 8 nM.
Consider `C[C@@H](NC(=O)c1cn([C@H]2C[C@@H]2C2CC2)c(=O)cc1N[C@H]1[C@@H]2CN(C)C[C@@H]21)c1cccc(C(F)F)c1F` (single isomer, unassigned) [Example 72], for which it took 9.7 nM to reach half-maximal inhibition in assay [1] (IC50). Moreover, on human SOS1, the Kd came to 3 nM.
In assay [1], `C[C@@H](NC(=O)c1cn(C2(C(F)F)CC2)c(=O)cc1N[C@H]1CCN(C)C[C@@H]1F)c1cccc(C(F)F)c1F` (single isomer, unassigned) [Example 66] came in with a concentration for half-maximal inhibition (IC50) of 48.6 nM. The Kd at human SOS1 is 34 nM.
In assay [1], `C[C@@H](NC(=O)c1cn(C2CC2)c(=O)cc1N[C@@H]1[C@@H]2CC[C@H]1CN(C)C2)c1cccc(C(F)F)c1F` (single isomer, unassigned) [Example 140] yielded an IC50 of 15.2 nM. Besides, at human SOS1, the Kd was 7 nM.
The corresponding values for `C[C@@H](NC(=O)c1cn([C@H]2CC2(F)F)c(=O)cc1N[C@H]1[C@@H]2CN(C)C[C@@H]21)c1cccc(C(F)F)c1F` [Example 93, 1-((S)-2,2-difluorocyclopropyl)-N-((R)-1-(3-(difluoromethyl)-2-fluorophenyl)ethyl)-4-(((lR,5S,6s)-3-methyl-3-azabicyclo[3.1.0]hexan-6-yl)amino)-6-oxo-1,6-dihydropyridine-3-carboxamide] are 23.2 nM and 13 nM.
Turning to `C[C@@H](NC(=O)c1cn(C2(C(F)(F)F)CC2)c(=O)cc1N[C@H]1[C@@H]2CN(C)C[C@@H]21)c1cccc(C(F)F)c1F` [Example 119, N-((R)-1-(3-(difluoromethyl)-2-fluorophenyl)ethyl)-4-(((1R,5S,6s)-3-methyl-3-azabicyclo[3.1.0]hexan-6-yl)amino)-6-oxo-1-(1-(trifluoromethyl)cyclopropyl)-1,6-dihydropyridine-3-carboxamide], inhibition in assay [1] was half-maximal at 36.6 nM (IC50). For the same compound, the Kd at human SOS1 was found to be 23 nM.
`C[C@@H](NC(=O)c1cn([C@@H]2CC23CCC3)c(=O)cc1N[C@H]1[C@@H]2CN(C)C[C@@H]21)c1cccc(C(F)F)c1F` (single isomer, unassigned) [Example 118] returned an IC50 in assay [1] of 16.6 nM. At human SOS1, the Kd worked out at 11 nM.
As to `C[C@@H](NC(=O)c1cn([C@@H]2CCC2(F)F)c(=O)cc1N[C@H]1[C@@H]2CN(C)C[C@@H]21)c1cccc(C(C)(F)F)c1F` (single isomer, unassigned) [Example 149], the IC50 in assay [1] turned out to be 61.6 nM. Besides, at human SOS1, the dissociation constant Kd is 56 nM.
Consider `C[C@@H](NC(=O)c1cn(C2(C(F)F)CC2)c(=O)cc1NC1CCN(CCF)CC1)c1cccc(C(F)F)c1F` [Example 82, (R)-N-(1-(3-(difluoromethyl)-2-fluorophenyl)ethyl)-1-(1-(difluoromethyl)cyclopropyl)-4-((1-(2-fluoroethyl)piperidin-4-yl)amino)-6-oxo-1,6-dihydropyridine-3-carboxamide], for which the half-inhibitory concentration (IC50) in assay [1] stood at 26.3 nM. Besides, on human SOS1, the Kd was 17 nM.
In the case of `C[C@@H](NC(=O)c1cn(C2(C(F)F)CC2)c(=O)cc1N[C@H]1CCN(C)C[C@H]1F)c1cccc(C(F)F)c1F` (single isomer, unassigned) [Example 64], in assay [1], the IC50 turned out to be 15 nM. Moreover, at human SOS1, the Kd worked out at 9 nM.
Take `C[C@@H](NC(=O)c1cn([C@@H]2CC2(F)F)c(=O)cc1N[C@H]1[C@@H]2CN(C)C[C@@H]21)c1cccc(C(F)F)c1F` (single isomer, unassigned) [Example 92]: half-maximal inhibition in assay [1] (IC50) required 16.1 nM. Moreover, the Kd on human SOS1 is 9 nM.
In turn, `C[C@@H](NC(=O)c1cn(C2CC3(C2)CC(F)(F)C3)c(=O)cc1N[C@@H]1CCN(C)C[C@@H]1F)c1cccc(C(F)F)c1F` [Example 126, N-((R)-1-(3-(difluoromethyl)-2-fluorophenyl)ethyl)-1-(6,6-difluorospiro[3 .3]heptan-2-yl)-4-(((3S,4R)-3-fluoro-1-methylpiperidin-4-yl)amino)-6-oxo-1,6-dihydropyridine-3-carboxamide] displayed an IC50 in assay [1] of 4.4 nM. Besides, the Kd on human SOS1 was 2 nM.
`C[C@@H](NC(=O)c1cn([C@H]2C[C@@H](F)C2)c(=O)cc1N[C@H]1[C@@H]2CN(C)C[C@@H]21)c1cccc(C(F)F)c1F` [Example 96, N-((R)-1-(3-(difluoromethyl)-2-fluorophenyl)ethyl)-1-((1s,3S)-3-fluorocyclobutyl)-4-(((1R,5S,6s)-3-methyl-3-azabicyclo[3.1.0]hexan-6-yl)amino)-6-oxo-1,6-dihydropyridine-3-carboxamide] gave an IC50 in assay [1] of 15.7 nM. Further, the Kd on human SOS1 amounted to 9 nM.
On to `C[C@@H](NC(=O)c1cn(C23CC(F)(C2)C3)c(=O)cc1NC1[C@@H]2CC[C@H]1CN(C)C2)c1cccc(C(F)F)c1F` (stereo partly drawn) [Example 137, N-((R)-1-(3-(difluoromethyl)-2-fluorophenyl)ethyl)-1-(3-fluorobicyclo[1.1.1]pentan-1-yl)-4-(((1R,5S,8r)-3-methyl-3-azabicyclo[3.2.1]octan-8-yl)amino)-6-oxo-1,6-dihydropyridine-3-carboxamide], for which 35.3 nM corresponded to half-maximal inhibition in assay [1] (IC50). Moreover, at human SOS1, the Kd was found to be 27 nM.
Consider `C[C@@H](NC(=O)c1cn(C(C)(C)C2CC2)c(=O)cc1N[C@H]1[C@@H]2CN(C)C[C@@H]21)c1cccc(C(F)F)c1F` [Example 108, 1-(2-cyclopropylpropan-2-yl)-N-((R)-1-(3-(difluoromethyl)-2-fluorophenyl)ethyl)-4-(((1R,5S,6s)-3-methyl-3-azabicyclo[3.1.0]hexan-6-yl)amino)-6-oxo-1,6-dihydropyridine-3-carboxamide], for which, in assay [1], half-maximal inhibition (IC50) required 147 nM. Besides, the Kd at human SOS1 worked out at 343 nM.
